# From ChEMBL document CHEMBL3414527, “Engineering potent and selective analogues of GpTx-1, a tarantula venom peptide antagonist of the Na(V)1.7 sodium channel” (J Med Chem, 2015)
# Bridge positions count the residues as written; N and C are the ends. Peptide text beside a SMILES is read from it.
# What was measured:
# [1] = molecular target: Sodium channel protein type 5 subunit alpha (Homo sapiens, UniProt Q14524); test: Inhibition of human NaV1.5 at -140 mV holding potential by whole-cell patch clamp assay
# [2] = molecular target: Sodium channel protein type 9 subunit alpha (Homo sapiens, UniProt Q15858); test: Inhibition of human NaV1.7 at -140 mV holding potential by whole-cell patch clamp assay
# Sodium channel protein type 9 subunit alpha, sequence (Q15858 whole entry): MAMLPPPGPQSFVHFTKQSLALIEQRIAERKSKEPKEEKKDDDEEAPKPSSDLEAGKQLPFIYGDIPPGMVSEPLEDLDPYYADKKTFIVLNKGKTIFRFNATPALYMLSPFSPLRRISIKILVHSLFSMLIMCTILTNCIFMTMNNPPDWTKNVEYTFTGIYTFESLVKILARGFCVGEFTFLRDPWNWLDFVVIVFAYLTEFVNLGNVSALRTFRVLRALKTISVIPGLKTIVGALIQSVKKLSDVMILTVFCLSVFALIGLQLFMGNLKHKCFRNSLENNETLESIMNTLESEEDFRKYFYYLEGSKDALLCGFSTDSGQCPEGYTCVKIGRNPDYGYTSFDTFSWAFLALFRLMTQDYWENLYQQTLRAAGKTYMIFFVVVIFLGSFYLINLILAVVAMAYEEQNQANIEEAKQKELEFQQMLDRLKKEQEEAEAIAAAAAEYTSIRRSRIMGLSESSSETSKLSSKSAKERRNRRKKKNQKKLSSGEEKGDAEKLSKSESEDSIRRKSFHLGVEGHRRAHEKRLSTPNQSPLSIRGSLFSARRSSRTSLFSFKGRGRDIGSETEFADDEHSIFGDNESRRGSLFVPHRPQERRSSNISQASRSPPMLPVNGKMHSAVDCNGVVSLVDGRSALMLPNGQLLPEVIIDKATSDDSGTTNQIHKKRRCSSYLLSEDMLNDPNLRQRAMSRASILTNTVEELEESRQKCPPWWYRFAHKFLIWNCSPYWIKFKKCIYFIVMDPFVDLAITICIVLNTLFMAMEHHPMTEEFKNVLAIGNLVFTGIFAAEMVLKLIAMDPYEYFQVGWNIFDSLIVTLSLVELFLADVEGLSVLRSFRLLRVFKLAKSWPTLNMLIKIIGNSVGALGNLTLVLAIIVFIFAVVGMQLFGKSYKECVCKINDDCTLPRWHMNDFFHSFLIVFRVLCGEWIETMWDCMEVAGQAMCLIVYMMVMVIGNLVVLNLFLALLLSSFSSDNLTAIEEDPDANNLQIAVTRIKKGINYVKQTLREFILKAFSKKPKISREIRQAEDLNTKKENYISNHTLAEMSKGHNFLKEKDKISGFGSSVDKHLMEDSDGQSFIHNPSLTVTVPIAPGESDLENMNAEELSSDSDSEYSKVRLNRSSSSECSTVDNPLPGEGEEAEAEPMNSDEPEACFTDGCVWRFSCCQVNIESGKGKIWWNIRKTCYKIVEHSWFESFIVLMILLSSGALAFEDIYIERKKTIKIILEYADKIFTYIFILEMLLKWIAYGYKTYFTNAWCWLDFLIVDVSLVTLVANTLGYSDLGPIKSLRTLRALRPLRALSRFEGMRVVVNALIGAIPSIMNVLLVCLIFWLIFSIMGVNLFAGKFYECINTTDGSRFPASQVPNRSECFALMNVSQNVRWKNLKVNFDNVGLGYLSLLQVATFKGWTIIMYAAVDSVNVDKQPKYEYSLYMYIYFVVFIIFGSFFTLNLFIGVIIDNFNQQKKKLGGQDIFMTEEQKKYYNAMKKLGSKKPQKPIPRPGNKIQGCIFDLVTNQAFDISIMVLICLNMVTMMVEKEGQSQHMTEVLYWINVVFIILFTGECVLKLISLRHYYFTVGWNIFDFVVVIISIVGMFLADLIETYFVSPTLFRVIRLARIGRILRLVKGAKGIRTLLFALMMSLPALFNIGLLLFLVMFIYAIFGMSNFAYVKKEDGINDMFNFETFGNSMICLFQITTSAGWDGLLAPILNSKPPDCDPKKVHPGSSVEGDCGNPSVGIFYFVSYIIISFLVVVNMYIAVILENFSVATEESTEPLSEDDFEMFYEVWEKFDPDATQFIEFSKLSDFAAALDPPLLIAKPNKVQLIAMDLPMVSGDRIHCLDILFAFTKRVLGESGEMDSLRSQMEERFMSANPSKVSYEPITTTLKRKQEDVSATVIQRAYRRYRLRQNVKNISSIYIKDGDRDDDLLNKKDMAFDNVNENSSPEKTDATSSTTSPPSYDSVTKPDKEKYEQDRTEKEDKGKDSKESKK
# Sodium channel protein type 5 subunit alpha, sequence (Q14524 whole entry): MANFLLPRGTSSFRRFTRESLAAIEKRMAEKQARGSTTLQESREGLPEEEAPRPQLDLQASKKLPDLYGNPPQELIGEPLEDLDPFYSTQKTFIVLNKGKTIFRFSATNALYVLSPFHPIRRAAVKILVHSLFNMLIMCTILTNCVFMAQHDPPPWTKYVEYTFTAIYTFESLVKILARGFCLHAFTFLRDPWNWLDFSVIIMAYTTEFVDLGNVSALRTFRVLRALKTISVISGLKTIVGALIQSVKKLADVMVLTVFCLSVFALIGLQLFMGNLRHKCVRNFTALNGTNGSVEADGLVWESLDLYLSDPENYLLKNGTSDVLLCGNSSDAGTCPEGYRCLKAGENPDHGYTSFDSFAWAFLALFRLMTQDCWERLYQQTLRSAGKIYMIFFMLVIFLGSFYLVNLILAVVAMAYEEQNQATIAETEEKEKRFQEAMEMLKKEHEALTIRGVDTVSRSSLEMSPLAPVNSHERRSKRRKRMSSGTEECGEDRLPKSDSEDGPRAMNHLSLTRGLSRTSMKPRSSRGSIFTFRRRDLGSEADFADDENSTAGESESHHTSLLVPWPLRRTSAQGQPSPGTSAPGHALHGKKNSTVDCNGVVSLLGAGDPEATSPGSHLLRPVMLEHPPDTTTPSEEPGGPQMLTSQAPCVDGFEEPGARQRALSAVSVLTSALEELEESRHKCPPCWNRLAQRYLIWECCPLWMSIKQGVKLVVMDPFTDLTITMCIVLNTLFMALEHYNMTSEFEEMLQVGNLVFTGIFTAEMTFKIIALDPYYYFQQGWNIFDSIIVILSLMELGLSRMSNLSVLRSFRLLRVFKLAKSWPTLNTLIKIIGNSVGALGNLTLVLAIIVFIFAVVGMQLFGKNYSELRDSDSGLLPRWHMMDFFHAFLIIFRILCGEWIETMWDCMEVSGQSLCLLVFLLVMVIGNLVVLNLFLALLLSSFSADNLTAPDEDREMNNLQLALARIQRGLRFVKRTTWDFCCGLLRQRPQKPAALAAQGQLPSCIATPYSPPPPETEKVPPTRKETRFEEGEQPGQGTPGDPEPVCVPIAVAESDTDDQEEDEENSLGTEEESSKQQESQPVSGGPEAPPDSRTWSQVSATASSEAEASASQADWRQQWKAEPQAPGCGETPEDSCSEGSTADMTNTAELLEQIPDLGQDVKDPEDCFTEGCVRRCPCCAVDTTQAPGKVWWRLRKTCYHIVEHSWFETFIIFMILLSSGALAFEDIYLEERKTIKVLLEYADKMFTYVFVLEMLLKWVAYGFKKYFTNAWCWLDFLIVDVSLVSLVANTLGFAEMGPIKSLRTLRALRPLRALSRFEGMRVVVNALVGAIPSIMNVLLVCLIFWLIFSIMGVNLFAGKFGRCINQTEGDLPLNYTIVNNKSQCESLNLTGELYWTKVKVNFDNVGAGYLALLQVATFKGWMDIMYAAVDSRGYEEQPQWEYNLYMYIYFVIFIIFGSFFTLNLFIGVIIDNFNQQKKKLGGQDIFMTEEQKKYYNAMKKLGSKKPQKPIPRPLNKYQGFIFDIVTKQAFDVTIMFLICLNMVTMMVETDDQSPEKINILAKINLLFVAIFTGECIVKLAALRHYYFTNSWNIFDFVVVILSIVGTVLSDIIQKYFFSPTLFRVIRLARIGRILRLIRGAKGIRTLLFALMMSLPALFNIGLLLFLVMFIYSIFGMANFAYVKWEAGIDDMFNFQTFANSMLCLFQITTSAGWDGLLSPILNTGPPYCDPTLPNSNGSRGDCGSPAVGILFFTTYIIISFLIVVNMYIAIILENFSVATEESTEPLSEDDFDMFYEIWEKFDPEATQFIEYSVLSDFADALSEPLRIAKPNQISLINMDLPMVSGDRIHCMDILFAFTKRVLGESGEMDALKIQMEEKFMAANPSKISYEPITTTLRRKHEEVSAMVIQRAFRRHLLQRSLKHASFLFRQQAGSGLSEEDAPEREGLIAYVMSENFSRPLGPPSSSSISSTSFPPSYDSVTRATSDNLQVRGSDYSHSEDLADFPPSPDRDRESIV
Structure (SMILES),IC50 [1] [nM],IC50 [2] [nM]
"CC[C@H](C)[C@@H]1NC(=O)[C@@H]2CSSC[C@@H]3NC(=O)[C@H](C(C)C)NC(=O)[C@H](CC(C)C)NC(=O)[C@H](CC(N)=O)NC(=O)[C@@H]4CCCN4C(=O)[C@H](CCCNC(=N)N)NC(=O)[C@H](CSSC[C@H](NC(=O)[C@@H](N)CC(=O)O)C(=O)N[C@@H](CC(C)C)C(=O)NCC(=O)N[C@@H](C)C(=O)N[C@@H](Cc4c[nH]c5ccccc45)C(=O)N[C@@H](CCCNC(=N)N)C(=O)N[C@@H](CCCCN)C(=O)N2)NC(=O)[C@H](CSSC[C@@H](C(=O)N[C@@H](CCCCN)C(=O)N[C@@H](Cc2ccc(O)cc2)C(=O)N[C@H](C(=O)N[C@@H](Cc2ccccc2)C(N)=O)C(C)C)NC(=O)[C@H](Cc2c[nH]c4ccccc24)NC(=O)[C@H](CCCCN)NC(=O)[C@H](Cc2cnc[nH]2)NC(=O)[C@H]([C@@H](C)O)NC(=O)[C@H](CCCNC(=N)N)NC(=O)[C@H](CO)NC3=O)NC(=O)[C@H](CCCCN)NC(=O)[C@H](CC(=O)O)NC(=O)[C@H](CC(N)=O)NC(=O)[C@H](CC(=O)O)NC(=O)[C@@H]2CCCN2C1=O (H-DCLGAWRKCIPDNDKCCRPNLVCSRTHKWCKYVF-NH2; disulfide 2-17, 9-23, 16-30)",> 10000,59
"CC[C@H](C)[C@@H]1NC(=O)[C@@H]2CSSC[C@@H]3NC(=O)[C@H](C(C)C)NC(=O)[C@H](CC(C)C)NC(=O)[C@H](CC(N)=O)NC(=O)[C@@H]4CCCN4C(=O)[C@H](CCCNC(=N)N)NC(=O)[C@H](CSSC[C@H](NC(=O)[C@@H](N)CC(=O)O)C(=O)N[C@@H](CC(C)C)C(=O)NCC(=O)N[C@@H](Cc4ccccc4)C(=O)N[C@@H](CCSC)C(=O)N[C@@H](CCCNC(=N)N)C(=O)N[C@@H](CCCCN)C(=O)N2)NC(=O)[C@H](CSSC[C@@H](C(=O)N[C@@H](CCCCN)C(=O)N[C@@H](Cc2ccc(O)cc2)C(=O)N[C@H](C(=O)N[C@@H](Cc2ccccc2)C(N)=O)C(C)C)NC(=O)[C@H](Cc2c[nH]c4ccccc24)NC(=O)[C@H](CCCCN)NC(=O)[C@H](Cc2cnc[nH]2)NC(=O)[C@H](CC(C)C)NC(=O)[C@H](CCCNC(=N)N)NC(=O)[C@H](CO)NC3=O)NC(=O)[C@H](CCCCN)NC(=O)[C@H](CC(=O)O)NC(=O)[C@H](CC(N)=O)NC(=O)[C@H](CC(=O)O)NC(=O)[C@@H]2CCCN2C1=O (H-DCLGFMRKCIPDNDKCCRPNLVCSRLHKWCKYVF-NH2; disulfide 2-17, 9-23, 16-30)",4600,4
"CC[C@H](C)[C@@H]1NC(=O)[C@@H]2CSSC[C@@H]3NC(=O)[C@H](C(C)C)NC(=O)[C@H](CC(C)C)NC(=O)[C@H](CC(N)=O)NC(=O)[C@@H]4CCCN4C(=O)[C@H](CCCNC(=N)N)NC(=O)[C@H](CSSC[C@H](NC(=O)[C@@H](N)CC(=O)O)C(=O)N[C@@H](CC(C)C)C(=O)NCC(=O)N[C@@H](C)C(=O)N[C@@H](CCSC)C(=O)N[C@@H](CCCNC(=N)N)C(=O)N[C@@H](CCCCN)C(=O)N2)NC(=O)[C@H](CSSC[C@@H](C(=O)N[C@@H](CCCCN)C(=O)N[C@@H](Cc2ccc(O)cc2)C(=O)N[C@H](C(=O)N[C@@H](Cc2ccccc2)C(N)=O)C(C)C)NC(=O)[C@H](Cc2c[nH]c4ccccc24)NC(=O)[C@H](CCCCN)NC(=O)[C@H](Cc2cnc[nH]2)NC(=O)[C@H](CC(C)C)NC(=O)[C@H](CCCNC(=N)N)NC(=O)[C@H](CO)NC3=O)NC(=O)[C@H](CCCCN)NC(=O)[C@H](CC(=O)O)NC(=O)[C@H](CC(N)=O)NC(=O)[C@H](CC(=O)O)NC(=O)[C@@H]2CCCN2C1=O (H-DCLGAMRKCIPDNDKCCRPNLVCSRLHKWCKYVF-NH2; disulfide 2-17, 9-23, 16-30)",> 10000,54
"CC[C@H](C)[C@@H]1NC(=O)[C@@H]2CSSC[C@@H]3NC(=O)[C@H](C(C)C)NC(=O)[C@H](CC(C)C)NC(=O)[C@H](CC(N)=O)NC(=O)[C@@H]4CCCN4C(=O)[C@H](CCCNC(=N)N)NC(=O)[C@H](CSSC[C@H](NC(=O)[C@@H](N)CC(=O)O)C(=O)N[C@@H](CC(C)C)C(=O)NCC(=O)N[C@@H](C)C(=O)N[C@@H](Cc4ccccc4)C(=O)N[C@@H](CCCNC(=N)N)C(=O)N[C@@H](CCCCN)C(=O)N2)NC(=O)[C@H](CSSC[C@@H](C(=O)N[C@@H](CCCCN)C(=O)N[C@@H](Cc2ccc(O)cc2)C(=O)N[C@H](C(=O)N[C@@H](Cc2ccccc2)C(N)=O)C(C)C)NC(=O)[C@H](Cc2c[nH]c4ccccc24)NC(=O)[C@H](CCCNC(=N)N)NC(=O)[C@H](Cc2cnc[nH]2)NC(=O)[C@H](CC(C)C)NC(=O)[C@H](CCCNC(=N)N)NC(=O)[C@H](CO)NC3=O)NC(=O)[C@H](CCCCN)NC(=O)[C@H](CC(=O)O)NC(=O)[C@H](CC(N)=O)NC(=O)[C@H](CC(=O)O)NC(=O)[C@@H]2CCCN2C1=O (H-DCLGAFRKCIPDNDKCCRPNLVCSRLHRWCKYVF-NH2; disulfide 2-17, 9-23, 16-30)",> 10000,1.6
CCC[C@@H]1NC(=O)CNC(=O)[C@H](CC(C)C)NC(=O)[C@@H](NC(=O)[C@@H](N)CC(=O)O)CSSC[C@@H]2NC(=O)[C@@H]3CSSC[C@@H](C(=O)N[C@@H](CCCCN)C(=O)N[C@@H](Cc4ccc(O)cc4)C(=O)N[C@H](C(=O)N[C@@H](Cc4ccccc4)C(N)=O)C(C)C)NC(=O)[C@H](Cc4c[nH]c5ccccc45)NC(=O)[C@H](CCCCN)NC(=O)[C@H](Cc4cnc[nH]4)NC(=O)[C@H]([C@@H](C)O)NC(=O)[C@H](CCCNC(=N)N)NC(=O)[C@H](CO)NC(=O)[C@H](CSSC[C@H](NC(=O)[C@H](CCCCN)NC(=O)[C@H](CCCNC(=N)N)NC(=O)[C@H](CCSC)NC1=O)C(=O)N[C@@H]([C@@H](C)CC)C(=O)N1CCC[C@H]1C(=O)N[C@@H](CC(=O)O)C(=O)N[C@@H](CC(N)=O)C(=O)N[C@@H](CC(=O)O)C(=O)N[C@@H](CCCCN)C(=O)N3)NC(=O)[C@H](C(C)C)NC(=O)[C@H](CC(C)C)NC(=O)[C@H](CC(N)=O)NC(=O)[C@@H]1CCCN1C(=O)[C@H](CCCNC(=N)N)NC2=O,> 10000,39
"CC[C@H](C)[C@@H]1NC(=O)[C@@H]2CSSC[C@@H]3NC(=O)[C@H](C(C)C)NC(=O)[C@H](CC(C)C)NC(=O)[C@H](CC(N)=O)NC(=O)[C@@H]4CCCN4C(=O)[C@H](C)NC(=O)[C@H](CSSC[C@H](NC(=O)[C@@H](N)CC(=O)O)C(=O)N[C@@H](CC(C)C)C(=O)NCC(=O)N[C@@H](Cc4ccccc4)C(=O)N[C@@H](CCSC)C(=O)N[C@@H](CCCNC(=N)N)C(=O)N[C@@H](CCCCN)C(=O)N2)NC(=O)[C@H](CSSC[C@@H](C(=O)N[C@@H](CCCCN)C(=O)N[C@@H](Cc2ccc(O)cc2)C(=O)N[C@H](C(=O)N[C@@H](Cc2ccccc2)C(N)=O)C(C)C)NC(=O)[C@H](Cc2c[nH]c4ccccc24)NC(=O)[C@H](CCCCN)NC(=O)[C@H](Cc2cnc[nH]2)NC(=O)[C@H]([C@@H](C)O)NC(=O)[C@H](CCCNC(=N)N)NC(=O)[C@H](CO)NC3=O)NC(=O)[C@H](CCCCN)NC(=O)[C@H](CC(=O)O)NC(=O)[C@H](CC(N)=O)NC(=O)[C@H](CC(=O)O)NC(=O)[C@@H]2CCCN2C1=O (H-DCLGFMRKCIPDNDKCCAPNLVCSRTHKWCKYVF-NH2; disulfide 2-17, 9-23, 16-30)",> 20000,130
"CC[C@H](C)[C@@H]1NC(=O)[C@@H]2CSSC[C@@H]3NC(=O)[C@H](C(C)C)NC(=O)[C@H](CC(C)C)NC(=O)[C@H](CC(N)=O)NC(=O)[C@@H]4CCCN4C(=O)[C@H](CCCNC(=N)N)NC(=O)[C@H](CSSC[C@H](NC(=O)[C@@H](N)CC(=O)O)C(=O)N[C@@H](CC(C)C)C(=O)NCC(=O)N[C@@H](Cc4ccccc4)C(=O)N[C@@H](CCSC)C(=O)N[C@@H](CCCNC(=N)N)C(=O)N[C@@H](CCCCN)C(=O)N2)NC(=O)[C@H](CSSC[C@@H](C(=O)N[C@@H](CCCCN)C(=O)N[C@@H](Cc2ccc(O)cc2)C(=O)N[C@H](C(=O)N[C@@H](Cc2ccccc2)C(N)=O)C(C)C)NC(=O)[C@H](Cc2c[nH]c4ccccc24)NC(=O)[C@H](CCCCN)NC(=O)[C@H](Cc2cnc[nH]2)NC(=O)[C@H]([C@@H](C)O)NC(=O)[C@H](CCCNC(=N)N)NC(=O)[C@H](CO)NC3=O)NC(=O)[C@H](C)NC(=O)[C@H](CC(=O)O)NC(=O)[C@H](CC(N)=O)NC(=O)[C@H](CC(=O)O)NC(=O)[C@@H]2CCCN2C1=O (H-DCLGFMRKCIPDNDACCRPNLVCSRTHKWCKYVF-NH2; disulfide 2-17, 9-23, 16-30)",> 5000,230
"CC[C@H](C)[C@@H]1NC(=O)[C@@H]2CSSC[C@@H]3NC(=O)[C@H](C(C)C)NC(=O)[C@H](CC(C)C)NC(=O)[C@H](CC(N)=O)NC(=O)[C@@H]4CCCN4C(=O)[C@H](CCCNC(=N)N)NC(=O)[C@H](CSSC[C@H](NC(=O)[C@@H](N)CC(=O)O)C(=O)N[C@@H](CC(C)C)C(=O)NCC(=O)N[C@@H](Cc4ccccc4)C(=O)N[C@@H](C)C(=O)N[C@@H](CCCNC(=N)N)C(=O)N[C@@H](CCCCN)C(=O)N2)NC(=O)[C@H](CSSC[C@@H](C(=O)N[C@@H](CCCCN)C(=O)N[C@@H](Cc2ccc(O)cc2)C(=O)N[C@H](C(=O)N[C@@H](Cc2ccccc2)C(N)=O)C(C)C)NC(=O)[C@H](Cc2c[nH]c4ccccc24)NC(=O)[C@H](CCCCN)NC(=O)[C@H](Cc2cnc[nH]2)NC(=O)[C@H]([C@@H](C)O)NC(=O)[C@H](CCCNC(=N)N)NC(=O)[C@H](CO)NC3=O)NC(=O)[C@H](CCCCN)NC(=O)[C@H](CC(=O)O)NC(=O)[C@H](CC(N)=O)NC(=O)[C@H](CC(=O)O)NC(=O)[C@@H]2CCCN2C1=O (H-DCLGFARKCIPDNDKCCRPNLVCSRTHKWCKYVF-NH2; disulfide 2-17, 9-23, 16-30)",> 5000,430
